Laboratory results published in patent US20110130357A1 (priority 2008, published 2011).
≈ marks a conversion by molar mass, not a printed value.

Legend:
F. graminearum [1] = type: cell-based, Fusarium graminearum; conditions: for lethality to F. graminearum: in the range of 500 to 1 μg/mL
screened fungi = assay: MIC against screened fungi (all species); type: cell-based
Fusarium oxysporium = assay: MIC against screened fungi
[2] = system: Pseudomonas aeruginosa (ATCC 27853); type: cell-based; conditions: 35° C., 12-18 hrs
Ulocladium sp. = assay: MIC against screened fungi
F. graminearum [3] = type: cell-based, Fusarium graminearum; conditions: PDB+casamino acids containing 0.02, 0.08 or 0.2% (v/v) surfactant
[4] = system: Enterococcus faecalis (ATCC29212); type: cell-based; conditions: 35° C., 12-18 hrs
[5] = system: Klebsiella pneumoniae (ATCC 138883); type: cell-based; conditions: 35° C., 12-18 hrs
[6] = system: F. graminearum isolate B-4-5A; type: in vivo, Fusarium graminearum on wheat (Alsen and Frontana cultivars); conditions: 30 μg/mL aminoglycoside mixed in inoculum, wheat leaves
wheat seedlings = conditions: in vivo
[7] = system: Escherichia coli TG1 (pET28a); type: cell-based; conditions: 35° C., 12-18 hrs
[8] = system: Staphylococcus aureus ATCC 25923; type: cell-based; conditions: 35° C., 12-18 hrs
[9] = system: selected bacterial pathogens; assay: Antibacterial MIC over the selected bacterial pathogens; type: cell-based; conditions: read-out: Corresponding MIC values (span over the tested bacteria)
Description: The minimum inhibitory concentration of M038 was determined for selected bacterial pathogens. For purposes of the experiments discussed in this paragraph, the minimum inhibitory concentration (MIC) is defined as the minimum concentration of compound needed to inhibit the growth of bacteria. A solution of selected bacteria was inoculated Trypticase Soy broth at 35° C. and incubated for 1-2 hours. Following incubation, the bacterial concentrations were determined, and diluted with broth, if necessary, to an absorption value of 0.08 to 0.1 at 625 nm. The adjusted inoculated medium (100 μL) was diluted with 10 ml broth, and then applied to a 96-well microtiter plate (50 μL). A series of solutions (50 μL each in 2-fold dilution) of M038 was added to the testing wells. The 96-well plate was incubated at 35° C. for 12-18 hrs. The MIC results were repeated at least three times.

SMILES	lethality to F. graminearum (F. graminearum [1])	effect of surfactant on in vitro activity (MIC) (F. graminearum [3])	lesion development / leaf infection by F. graminearum [6]	phytotoxicity (wheat seedlings)	phytotoxicity (relative chlorophyll content) (wheat seedlings)	other results
NCC1O[C@H](OC2C(N)CC(N)[C@@H](OC3OCC(O)[C@@H](O)[C@H]3O)[C@H]2O)C(N)[C@@H](O)[C@@H]1O (stereo partly drawn) [JL39]	not lethal	–	–	–	–	–
CCCCCCCCO[C@H]1[C@H](O)[C@@H](O)[C@@H](O[C@@H]2[C@@H](O)[C@H](O[C@H]3O[C@H](CN)[C@@H](O)[C@H](O)[C@H]3N)[C@@H](N)C[C@H]2N)O[C@@H]1C [JL038, 6-O-(6-Deoxy-4-O-n-octyl-α-D-glucopyranosyl)neamine]	–	did not affect	prevents lesion development	no phytotoxicity	phytotoxic	MICs for all species of screened fungi (screened fungi; all screened fungi): ≤ 31.3 µg/mL; MIC (Fusarium oxysporium): 7.8 µg/mL (≈ 13.4 µM); Minimal inhibitory concentration (MIC) [2]: 250 µg/mL (≈ 431 µM); MIC (Ulocladium sp.): 7.8 µg/mL (≈ 13.4 µM); Minimal inhibitory concentration (MIC) [4]: 125-250 μ/mL; Minimal inhibitory concentration (MIC) [5]: 250 μ/mL; chlorophyll damage (relative chlorophyll content) (wheat seedlings): no chlorophyll damages; phytotoxicity (chlorosis in the absence of fungal growth) (wheat seedlings): showed phytotoxicity; Minimal inhibitory concentration (MIC) [7]: 125-250 μ/mL; MIC (MIC90, concentration required to inhibit 90% of the growth or more) (F. graminearum [1]; PDB+casamino acids, 24° C., 72 h, tested range 500 to 1 μg/mL): 31.3 µg/mL; Minimal inhibitory concentration (MIC) [8]: 250 μ/mL
NCC1O[C@H](OC2C(N)CC(N)[C@@H](OC3OCC(O)[C@@H](N)[C@H]3O)[C@H]2O)C(N)[C@@H](O)[C@@H]1O (stereo partly drawn) [JL40, reference compound]	–	did not affect	did not prevent leaf infection	phytotoxic	phytotoxic	–
NCC1O[C@H](OC2C(N)CC(N)[C@@H](OC3O[C@H](CO)C(O)[C@@H](N)[C@H]3O)[C@H]2O)C(O)[C@@H](O)[C@@H]1O (stereo partly drawn) [kanamycin A, Kanamycin A]	not lethal	–	–	–	–	–
NC[C@H]1O[C@H](O[C@H]2[C@H](O)[C@@H](O[C@H]3O[C@H](CO)[C@@H](O)[C@H](N)[C@H]3O)[C@H](N)C[C@@H]2N)[C@H](N)[C@@H](O)[C@@H]1O [kanamycin B, Kanamycin B, reference compound]	–	did not affect	did not prevent leaf infection	phytotoxic	phytotoxic	antifungal effectiveness against screened fungi (screened fungi; screened fungi of Table 2): substantially ineffective; MIC [9]: 980 to 1950 µg/mL (≈ 2030 to 4030 µM)
